# Data from patent publication US20230085307A1, “PYRIDAZINONE COMPOUND AND HERBICIDE” (NISSAN CHEMICAL CORPORATION, priority 2019, published 2023).
# Legend:
# green foxtail [1] = assay: Test Example 4: herbicidal effect by soil treatment (Table 19, symbol G); format: in vivo, green foxtail (Setaria viridis)
# Procedure, shortened: (§1)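 Seeds were sown in sterilized diluvial soil and covered with about 1.5 cm of soil. An emulsion formulation diluted with water to a predetermined herbicide amount was sprayed evenly onto the soil surface. Plants grew in a greenhouse at 25° C. to 30° C., and the effect was scored three weeks after application using criteria from an earlier test.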
# southern crabgrass [2] = assay: Test Example 5: herbicidal effect by foliage application, plastic box (Table 20, symbol F); format: in vivo, southern crabgrass (Digitaria ciliaris); conditions: evaluated three weeks after application
# Procedure, shortened: (§2)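 Plants sown in sterilized diluvial soil and grown 14 days in a greenhouse at 25° C to 30° C, then sprayed on the foliage with the compound's emulsion diluted in water to a predetermined herbicide amount. Injury to weeds and crops scored three weeks after application on a visual rating scale.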
# southern crabgrass [3] = assay: Test Example 4: herbicidal effect by soil treatment (Table 19, symbol F); format: in vivo, southern crabgrass (Digitaria ciliaris)
# Procedure, shortened: as §1
# green foxtail [4] = assay: Test Example 5: herbicidal effect by foliage application, plastic box (Table 20, symbol G); format: in vivo, green foxtail (Setaria viridis); conditions: evaluated three weeks after application
# Procedure, shortened: as §2
# Italian ryegrass [5] = assay: Test Example 4: herbicidal effect by soil treatment (Table 19, symbol K); format: in vivo, Italian ryegrass (Lolium multiflorum)
# Procedure, shortened: as §1
# barnyard grass [6] = assay: Test Example 3: herbicidal effect by foliage application, Wagner pot (Table 18, symbol H); format: in vivo, barnyard grass (Echinochloa crus-galli)
# Procedure, shortened: (§3)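 Plants were sown in alluvial soil held under 0.1–0.5 cm standing water and grown 14 days in a greenhouse at 25–30 °C. An emulsifiable formulation, water-diluted to the set dose, was then sprayed onto the foliage, and effects were scored three weeks later using previously defined criteria.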
# Chinese sprangletop = assay: Test Example 3: herbicidal effect by foliage application, Wagner pot (Table 18, symbol D); format: in vivo, chinese sprangletop (Leptochloa chinensis)
# Procedure, shortened: as §3
# redroot pigweed [7] = assay: Test Example 4: herbicidal effect by soil treatment (Table 19, symbol N); format: in vivo, redroot pigweed (Amaranthus retroflexus)
# Procedure, shortened: as §1
# lambsquarters [8] = assay: Test Example 4: herbicidal effect by soil treatment (Table 19, symbol O); format: in vivo, lambsquarters (Chenopodium album)
# Procedure, shortened: as §1
# persian speedwell = assay: Test Example 5: herbicidal effect by foliage application, plastic box (Table 20, symbol R); format: in vivo, Persian speedwell (Veronica persica); conditions: evaluated three weeks after application
# Procedure, shortened: as §2
# wild oat [9] = assay: Test Example 4: herbicidal effect by soil treatment (Table 19, symbol I); format: in vivo, wild oat (Avena fatua)
# Procedure, shortened: as §1
# blackgrass [10] = assay: Test Example 4: herbicidal effect by soil treatment (Table 19, symbol J); format: in vivo, blackgrass (Alopecurus myosuroides)
# Procedure, shortened: as §1
# rice flat sedge = assay: Test Example 3: herbicidal effect by foliage application, Wagner pot (Table 18, symbol E); format: in vivo, rice flat sedge (Cyperus iria)
# Procedure, shortened: as §3
# barnyard grass [11] = assay: Test Example 5: herbicidal effect by foliage application, plastic box (Table 20, symbol H); format: in vivo, barnyard grass (Echinochloa crus-galli); conditions: evaluated three weeks after application
# Procedure, shortened: as §2
# wild oat [12] = assay: Test Example 5: herbicidal effect by foliage application, plastic box (Table 20, symbol I); format: in vivo, wild oat (Avena fatua); conditions: evaluated three weeks after application
# Procedure, shortened: as §2
# barnyard grass [13] = assay: Test Example 4: herbicidal effect by soil treatment (Table 19, symbol H); format: in vivo, barnyard grass (Echinochloa crus-galli)
# Procedure, shortened: as §1
# redroot pigweed [14] = assay: Test Example 5: herbicidal effect by foliage application, plastic box (Table 20, symbol N); format: in vivo, redroot pigweed (Amaranthus retroflexus); conditions: evaluated three weeks after application
# Procedure, shortened: as §2
# windgrass [15] = assay: Test Example 5: herbicidal effect by foliage application, plastic box (Table 20, symbol L); format: in vivo, windgrass (Apera spica-venti); conditions: evaluated three weeks after application
# Procedure, shortened: as §2
# windgrass [16] = assay: Test Example 4: herbicidal effect by soil treatment (Table 19, symbol L); format: in vivo, windgrass (Apera spica-venti)
# Procedure, shortened: as §1
# velvetleaf [17] = assay: Test Example 5: herbicidal effect by foliage application, plastic box (Table 20, symbol M); format: in vivo, velvetleaf (Abutilon theophrasti); conditions: evaluated three weeks after application
# Procedure, shortened: as §2
# Italian ryegrass [18] = assay: Test Example 5: herbicidal effect by foliage application, plastic box (Table 20, symbol K); format: in vivo, Italian ryegrass (Lolium multiflorum); conditions: evaluated three weeks after application
# Procedure, shortened: as §2
# lambsquarters [19] = assay: Test Example 5: herbicidal effect by foliage application, plastic box (Table 20, symbol O); format: in vivo, lambsquarters (Chenopodium album); conditions: evaluated three weeks after application
# Procedure, shortened: as §2
# false cleavers = assay: Test Example 4: herbicidal effect by soil treatment (Table 19, symbol Q); format: in vivo, false cleavers (Galium spurium)
# Procedure, shortened: as §1
# chickweed = assay: Test Example 5: herbicidal effect by foliage application, plastic box (Table 20, symbol P); format: in vivo, common chickweed (Stellaria media); conditions: evaluated three weeks after application
# Procedure, shortened: as §2
# velvetleaf [20] = assay: Test Example 4: herbicidal effect by soil treatment (Table 19, symbol M); format: in vivo, velvetleaf (Abutilon theophrasti)
# Procedure, shortened: as §1
# blackgrass [21] = assay: Test Example 5: herbicidal effect by foliage application, plastic box (Table 20, symbol J); format: in vivo, blackgrass (Alopecurus myosuroides); conditions: evaluated three weeks after application
# Procedure, shortened: as §2
# [22] = amount of applied herbicide 310 g/ha
# [23] = foliage application, AAH 310 g/ha
# [24] = amount of applied herbicide 320 g/ha
# [25] = 320 g/ha, foliage application after 14-day growth
compound,measurement,setting,value
Cc1nn(C)c(=O)c(-c2c(-c3ccc(OC(F)F)cc3)sc3ccc(F)cc23)c1OC(=S)Oc1ccccc1 [2-297],herbicidal effect on G: green foxtail,green foxtail [1]; [22],4 (Herbicidal rate of 70% or more and less than 90%)
same,"F: southern crabgrass, herbicidal effect (criteria 0-5)",southern crabgrass [2]; [23],1 (Herbicidal rate of 5% or more and less than 20%)
same,herbicidal effect on F: southern crabgrass,southern crabgrass [3]; [22],3 (Herbicidal rate of 40% or more and less than 70%)
same,"G: green foxtail, herbicidal effect (criteria 0-5)",green foxtail [4]; [23],5 (Herbicidal rate of 90% or more (almost completely withered))
same,herbicidal effect on K: Italian ryegrass,Italian ryegrass [5]; [22],5 (Herbicidal rate of 90% or more (almost completely withered))
same,herbicidal effect on H: barnyard grass,barnyard grass [6]; [22],5 (Herbicidal rate of 90% or more (almost completely withered))
same,herbicidal effect on D: Chinese sprangletop,Chinese sprangletop; [22],0 (Herbicidal rate of 5% or less (almost no effect))
same,herbicidal effect on N: redroot pigweed,redroot pigweed [7]; [22],5 (Herbicidal rate of 90% or more (almost completely withered))
same,herbicidal effect on O: lambsquarters,lambsquarters [8]; [22],5 (Herbicidal rate of 90% or more (almost completely withered))
same,"R: persian speedwell, herbicidal effect (criteria 0-5)",persian speedwell; [23],5 (Herbicidal rate of 90% or more (almost completely withered))
same,herbicidal effect on I: wild oat,wild oat [9]; [22],0 (Herbicidal rate of 5% or less (almost no effect))
same,herbicidal effect on J: blackgrass,blackgrass [10]; [22],3 (Herbicidal rate of 40% or more and less than 70%)
same,herbicidal effect on E: rice flat sedge,rice flat sedge; [22],5 (Herbicidal rate of 90% or more (almost completely withered))
same,"H: barnyard grass, herbicidal effect (criteria 0-5)",barnyard grass [11]; [23],5 (Herbicidal rate of 90% or more (almost completely withered))
same,"I: wild oat, herbicidal effect (criteria 0-5)",wild oat [12]; [23],2 (Herbicidal rate of 20% or more and less than 40%)
same,herbicidal effect on H: barnyard grass,barnyard grass [13]; [22],4 (Herbicidal rate of 70% or more and less than 90%)
same,"N: redroot pigweed, herbicidal effect (criteria 0-5)",redroot pigweed [14]; [23],5 (Herbicidal rate of 90% or more (almost completely withered))
same,"L: windgrass, herbicidal effect (criteria 0-5)",windgrass [15]; [23],0 (Herbicidal rate of 5% or less (almost no effect))
same,herbicidal effect on L: windgrass,windgrass [16]; [22],0 (Herbicidal rate of 5% or less (almost no effect))
same,"M: velvetleaf, herbicidal effect (criteria 0-5)",velvetleaf [17]; [23],5 (Herbicidal rate of 90% or more (almost completely withered))
same,"K: Italian ryegrass, herbicidal effect (criteria 0-5)",Italian ryegrass [18]; [23],5 (Herbicidal rate of 90% or more (almost completely withered))
same,"O: lambsquarters, herbicidal effect (criteria 0-5)",lambsquarters [19]; [23],5 (Herbicidal rate of 90% or more (almost completely withered))
same,herbicidal effect on Q: false cleavers,false cleavers; [22],0 (Herbicidal rate of 5% or less (almost no effect))
same,"P: chickweed, herbicidal effect (criteria 0-5)",chickweed; [23],5 (Herbicidal rate of 90% or more (almost completely withered))
same,herbicidal effect on M: velvetleaf,velvetleaf [20]; [22],5 (Herbicidal rate of 90% or more (almost completely withered))
same,"J: blackgrass, herbicidal effect (criteria 0-5)",blackgrass [21]; [23],3 (Herbicidal rate of 40% or more and less than 70%)
Cc1nn(C)c(=O)c(-c2c(-c3ccc(Cl)cc3)sc3c(Cl)cccc23)c1O [4-017],"Herbicidal effect by soil treatment, G: green foxtail",green foxtail [1]; [24],0 (Herbicidal rate of 5% or less (almost no effect))
same,herbicidal effect on F: southern crabgrass (evaluation grade 0-5),southern crabgrass [2]; [25],0 (Herbicidal rate of 5% or less (almost no effect))
same,"Herbicidal effect by soil treatment, F: southern crabgrass",southern crabgrass [3]; [24],0 (Herbicidal rate of 5% or less (almost no effect))
same,herbicidal effect on G: green foxtail (evaluation grade 0-5),green foxtail [4]; [25],0 (Herbicidal rate of 5% or less (almost no effect))
same,"Herbicidal effect by soil treatment, K: Italian ryegrass",Italian ryegrass [5]; [24],0 (Herbicidal rate of 5% or less (almost no effect))
same,herbicidal effect on barnyard grass (H),barnyard grass [6]; 320 g/ha,4 (Herbicidal rate of 70% or more and less than 90%)
same,herbicidal effect on Chinese sprangletop (D),Chinese sprangletop; 320 g/ha,0 (Herbicidal rate of 5% or less (almost no effect))
same,"Herbicidal effect by soil treatment, N: redroot pigweed",redroot pigweed [7]; [24],0 (Herbicidal rate of 5% or less (almost no effect))
same,"Herbicidal effect by soil treatment, O: lambsquarters",lambsquarters [8]; [24],0 (Herbicidal rate of 5% or less (almost no effect))
same,herbicidal effect on R: persian speedwell (evaluation grade 0-5),persian speedwell; [25],4 (Herbicidal rate of 70% or more and less than 90%)
same,"Herbicidal effect by soil treatment, I: wild oat",wild oat [9]; [24],0 (Herbicidal rate of 5% or less (almost no effect))
same,"Herbicidal effect by soil treatment, J: blackgrass",blackgrass [10]; [24],0 (Herbicidal rate of 5% or less (almost no effect))
same,herbicidal effect on rice flat sedge (E),rice flat sedge; 320 g/ha,3 (Herbicidal rate of 40% or more and less than 70%)
same,herbicidal effect on H: barnyard grass (evaluation grade 0-5),barnyard grass [11]; [25],0 (Herbicidal rate of 5% or less (almost no effect))
same,herbicidal effect on I: wild oat (evaluation grade 0-5),wild oat [12]; [25],3 (Herbicidal rate of 40% or more and less than 70%)
same,"Herbicidal effect by soil treatment, H: barnyard grass",barnyard grass [13]; [24],0 (Herbicidal rate of 5% or less (almost no effect))
same,herbicidal effect on N: redroot pigweed (evaluation grade 0-5),redroot pigweed [14]; [25],5 (Herbicidal rate of 90% or more (almost completely withered))
same,herbicidal effect on L: windgrass (evaluation grade 0-5),windgrass [15]; [25],4 (Herbicidal rate of 70% or more and less than 90%)
same,"Herbicidal effect by soil treatment, L: windgrass",windgrass [16]; [24],2 (Herbicidal rate of 20% or more and less than 40%)
same,herbicidal effect on M: velvetleaf (evaluation grade 0-5),velvetleaf [17]; [25],4 (Herbicidal rate of 70% or more and less than 90%)
same,herbicidal effect on K: Italian ryegrass (evaluation grade 0-5),Italian ryegrass [18]; [25],1 (Herbicidal rate of 5% or more and less than 20%)
same,herbicidal effect on O: lambsquarters (evaluation grade 0-5),lambsquarters [19]; [25],2 (Herbicidal rate of 20% or more and less than 40%)
same,"Herbicidal effect by soil treatment, Q: false cleavers",false cleavers; [24],0 (Herbicidal rate of 5% or less (almost no effect))
same,herbicidal effect on P: chickweed (evaluation grade 0-5),chickweed; [25],5 (Herbicidal rate of 90% or more (almost completely withered))
same,"Herbicidal effect by soil treatment, M: velvetleaf",velvetleaf [20]; [24],0 (Herbicidal rate of 5% or less (almost no effect))
same,herbicidal effect on J: blackgrass (evaluation grade 0-5),blackgrass [21]; [25],3 (Herbicidal rate of 40% or more and less than 70%)
